# Data: publication PMC7170309, “Imidazopyridine-fused [1,3]diazepinones: modulations of positions 2 to 4 and their impacts on the anti-melanoma activity” (Journal of Enzyme Inhibition and Medicinal Chemistry, 2020)
# Key:
# A375 melanoma cells = experiment: Neutral red uptake (NRU) viability assay, A375; type: cell-based, human; conditions: Homo sapiens, A-375, 72 h, mean ± SD of three experiments
# Experimental: (§1) Melanoma human cancer cell line (A375 and MDA-MB-435) were obtained from ATCC. The NIH-3T3 cell line was generously gifted by the ANSM (French National Agency for Medicines and Health Products Safety, Vendargues, France). Cells were cultured in Dulbecco’s Modified Eagle Medium (DMEM, Sigma Aldrich) supplemented with 10% heat-inactivated foetal calf serum (FCS, Gibco), 2 mM glutamax (Gibco), 100 IU/mL penicillin G sodium (Sigma Aldrich), 100 lU/mL streptomycin sulphate (Sigma Aldrich). The cells were allowed to grow at 37 °C in a fully humidified atmosphere containing 5% CO2.
# (§2) A viability assay was used to evaluate the cytotoxic activity on A375 and MDA-MB-435 melanoma cells as previously described. According to OCDE/ICCVAM guidance n°129, NRU assay was also used to evaluate the toxicity on the non-cancerous NIH-3T3 cells. Cells were seeded at a final concentration of 2000 cells/well (A375), 3000 cells/well (NIH-3T3) or 7500 cells/well (MDA-MB-435) in 96-well microtiter plates for 24 h. Then, cells were exposed to two negative controls (1% DMSO in culture medium (vehicle) and culture medium alone), or to different compounds freshly dissolved in DMSO, in a range of concentration from 0.01 to 40 µM (six wells per concentration). After 72 h of incubation, cells were stained with new medium containing 50 µg/mL of neutral red (3-amino-7-dimethylamino-2-methylphenazine hydrochloride, Sigma Aldrich) at 37 °C for 2 h. The neutral red medium solution was then removed and the wells were washed with PBS. Finally, 100 µL of solution containing ethanol, acetic acid and water (50/1/49 v/v/v respectively) were added into the wells and the absorbance was measured at 540 nm using the microplate reader 352 Multiscan MS (Labsystems). Cell survival rates were normalised to the absorbance values of untreated control cells. IC50 was obtained using a logistic regression model on Graphpad Prism 5.0 software. Results are given as the mean ± standard deviation (SD) of three independent experiments. Statistical analysis was performed using the Student’s t-test.
# [1] = tested on: NIH-3T3 non-cancerous cells; experiment: Neutral red uptake (NRU) toxicity assay, NIH-3T3; type: cell-based; conditions: non-cancerous mouse fibroblasts
# Experimental: as §1, §2
# Then, all active compounds on the two melanoma cell lines (IC50 < 40 µM) were assessed on the NIH-3T3 mouse fibroblast cell line, in order to check the toxicity of our compounds on non-cancerous cells. […] As a possible modification of the mechanism of action was hypothesised for these two derivatives (see above), this phenomenon could probably be also correlated with the cytotoxicity observed on the NIH-3T3 cell line.
# MOLT-4 = experiment: NCI-60 SRB assay, MOLT-4 (Leukemia); type: cell-based, human; conditions: 10 µM, 48 h; for G%: growth vs untreated control
# Experimental: (§3) Primary anticancer assay was performed on a panel of 60 human cancer cell lines derived from nine neoplastic diseases, in accordance with the protocol of the Drug Evaluation Branch, National Cancer Institute, Bethesda, Maryland, USA[22]. Cells were incubated with tested compounds at 10 µM for 48 h. The growth percentage was evaluated spectrophotometrically using a protein binding dye, SRB. Results for each tested compound were reported as the percent of growth of treated cells when compared to untreated control cells.
# (§4) To better compare the activity profile of these two series of compounds, compounds 5 and 8 were selected and then evaluated towards a panel of sixty cancer cell lines corresponding to nine different cancer types, i.e. leukaemia, melanoma, as well as lung, colon, central nervous system, ovarian, renal, prostate and breast cancers (NCI evaluation). Indeed, it is now well established that the growth inhibitory patterns of anticancer drugs against the NCI-60 cell line panel correlated well with their modes of action. For example, compounds that bind to tubulin have similar growth inhibition patterns regardless of which site on tubulin they bind[30]. […] Compounds were tested using the sulforhodamine B (SRB) assay that provides a direct cell density index. The amount of dye incorporated by the cells increases with the increase of the total protein biomass. Cells were incubated for 48 h with compounds at 10 µM concentration, then cell growth was evaluated spectrophotometrically and presented as the percent of untreated control cells. Values of the most sensitive cell lines were compared to those obtained with JMV5038 (Figure 4, for all data see SI).
# EKVX = experiment: NCI-60 SRB assay, EKVX (NSCLC); type: cell-based, human; conditions: 10 µM, 48 h
# Experimental: as §3, §4
# HOP-62 = experiment: NCI-60 SRB assay, HOP-62 (NSCLC); type: cell-based, human; conditions: 10 µM, 48 h; for G%: growth vs untreated control;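 on Mean G% - G%: mean growth across the NCI-60 panel minus this line's growth with positive meaning more sensitive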
# Experimental: as §3, §4
# HOP-92 = experiment: NCI-60 SRB assay, HOP-92 (NSCLC); type: cell-based, human; conditions: 10 µM, 48 h; for G%: growth vs untreated control;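 on Mean G% - G%: mean growth across the NCI-60 panel minus this line's growth with positive meaning more sensitive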
# Experimental: as §3, §4
# NCI-H226 = experiment: NCI-60 SRB assay, NCI-H226 (NSCLC); type: cell-based, human; conditions: 10 µM, 48 h; for G%: growth vs untreated control
# Experimental: as §3, §4
# NCI-H322M = experiment: NCI-60 SRB assay, NCI-H322M (NSCLC); type: cell-based, human; conditions: 10 µM, 48 h; for G%: growth vs untreated control
# Experimental: as §3, §4
# NCI-H522 = experiment: NCI-60 SRB assay, NCI-H522 (NSCLC); type: cell-based, human; conditions: 10 µM, 48 h; for G%: growth vs untreated control
# Experimental: as §3, §4
# HCC-2998 = experiment: NCI-60 SRB assay, HCC-2998 (Colon Cancer); type: cell-based, human; conditions: 10 µM, 48 h; for G%: growth vs untreated control;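 on Mean G% - G%: mean growth across the NCI-60 panel minus this line's growth with positive meaning more sensitive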
# Experimental: as §3, §4
# HCT-116 = experiment: NCI-60 SRB assay, HCT-116 (Colon Cancer); type: cell-based, human; conditions: 10 µM, 48 h; for G%: growth vs untreated control
# Experimental: as §3, §4
# HT29 = experiment: NCI-60 SRB assay, HT29 (Colon Cancer); type: cell-based, human; conditions: 10 µM, 48 h; for G%: growth vs untreated control;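 on Mean G% - G%: mean growth across the NCI-60 panel minus this line's growth with positive meaning more sensitive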
# Experimental: as §3, §4
# SF-295 = experiment: NCI-60 SRB assay, SF-295 (CNS Cancer); type: cell-based, human; conditions: 10 µM, 48 h; for G%: growth vs untreated control
# Experimental: as §3, §4
# SNB-19 = experiment: NCI-60 SRB assay, SNB-19 (CNS Cancer); type: cell-based, human; conditions: 10 µM, 48 h; for G%: growth vs untreated control
# Experimental: as §3, §4
# SNB-75 = experiment: NCI-60 SRB assay, SNB-75 (CNS Cancer); type: cell-based, human; conditions: 10 µM, 48 h; for G%: growth vs untreated control
# Experimental: as §3, §4
# IGROV1 = experiment: NCI-60 SRB assay, IGROV1 (Ovarian Cancer); type: cell-based, human; conditions: 10 µM, 48 h; for G%: growth vs untreated control
# Experimental: as §3, §4
# OVCAR-5 = experiment: NCI-60 SRB assay, OVCAR-5 (Ovarian Cancer); type: cell-based, human; conditions: 10 µM, 48 h; for G%: growth vs untreated control
# Experimental: as §3, §4
# ACHN = experiment: NCI-60 SRB assay, ACHN (Renal Cancer); type: cell-based, human; conditions: 10 µM, 48 h; for G%: growth vs untreated control
# Experimental: as §3, §4
# RXF 393 = experiment: NCI-60 SRB assay, RXF 393 (Renal Cancer); type: cell-based, human; conditions: 10 µM, 48 h; for G%: growth vs untreated control
# Experimental: as §3, §4
# SN12C = experiment: NCI-60 SRB assay, SN12C (Renal Cancer); type: cell-based, human; conditions: 10 µM, 48 h; for G%: growth vs untreated control
# Experimental: as §3, §4
# TK-10 = experiment: NCI-60 SRB assay, TK-10 (Renal Cancer); type: cell-based, human; conditions: 10 µM, 48 h; for G%: growth vs untreated control
# Experimental: as §3, §4
# MCF7 = experiment: NCI-60 SRB assay, MCF7 (Breast Cancer); type: cell-based, human; conditions: 10 µM, 48 h; for G%: growth vs untreated control
# Experimental: as §3, §4
smiles,measurement,setting,value
"[N-]=[N+]=NCCCC[C@@H]1NC(c2ccc(Br)cc2)=Nc2nc3ccccn3c2C1=O [Compound 16, (4S)-4-(4-azidobutyl)-2-(4-bromophenyl)-3,4-dihydro-5H-pyrido[1’,2’:1,2]imidazo[4,5-d][1,3]diazepin-5-one]",IC50,A375 melanoma cells,3.68 ± 0.63 µM
same,IC50,[1]; 72 h,9.9 ± 0.51 µM
same,IC50,"[1]; Mus musculus, NIH3T3, 72 h",~10 µM
same,Mean G% - G%,MOLT-4,"4,57%"
same,G%,MOLT-4,"87,20%"
same,Mean G% - G%,EKVX,"12,19%"
same,G%,EKVX; growth vs untreated control,"79,58%"
same,Mean G% - G%,HOP-62,"14,42%"
same,G%,HOP-62,"77,35%"
same,Mean G% - G%,HOP-92,"-11,05%"
same,G%,HOP-92,"102,82%"
same,Mean G% - G%,NCI-H226,"3,58%"
same,G%,NCI-H226,"88,19%"
same,Mean G% - G%,NCI-H322M,"0,41%"
same,G%,NCI-H322M,"91,36%"
same,Mean G% - G%,NCI-H522,"7,01%"
same,G%,NCI-H522,"84,76%"
same,Mean G% - G%,HCC-2998,"-20,61%"
same,G%,HCC-2998,"112,38%"
same,Mean G% - G%,HCT-116,"-1,04%"
same,G%,HCT-116,"92,81%"
same,Mean G% - G%,HT29,"-14,13%"
same,G%,HT29,"105,90%"
same,Mean G% - G%,SF-295,"-4,02%"
same,G%,SF-295,"95,79%"
same,Mean G% - G%,SNB-19,"-3,35%"
same,G%,SNB-19,"95,12%"
same,Mean G% - G%,SNB-75,"4,12%"
same,G%,SNB-75,"87,65%"
same,Mean G% - G%,IGROV1,"70,16%"
same,G%,IGROV1,"21,61%"
same,Mean G% - G%,OVCAR-5,"-11,70%"
same,G%,OVCAR-5,"103,47%"
same,Mean G% - G%,ACHN,"3,57%"
same,G%,ACHN,"88,20%"
same,Mean G% - G%,RXF 393,"10,83%"
same,G%,RXF 393,"80,94%"
same,Mean G% - G%,SN12C,"-4,64%"
same,G%,SN12C,"96,41%"
same,Mean G% - G%,TK-10,"-38,14%"
same,G%,TK-10,"129,91%"
same,Mean G% - G%,MCF7,"11,80%"
same,G%,MCF7,"79,97%"
C[C@@H]1NC(c2ccc(Br)cc2)=Nc2nc3ccccn3c2C1=O [JMV5038],IC50,A375 melanoma cells,2.1 ± 0.42 µM
same,IC50,"[1]; Mus musculus, NIH3T3, 72 h",> 100 µM
same,Mean G% - G%,MOLT-4,"-3,27%"
same,G%,MOLT-4,"57,51%"
same,Mean G% - G%,HOP-62,"-1,60%"
same,G%,HOP-62,"55,84%"
same,Mean G% - G%,HOP-92,"-5,24%"
same,G%,HOP-92,"59,48%"
same,Mean G% - G%,NCI-H226,"-14,04%"
same,G%,NCI-H226,"68,28%"
same,Mean G% - G%,NCI-H322M,"-19,71%"
same,G%,NCI-H322M,"73,95%"
same,Mean G% - G%,NCI-H522,"19,43%"
same,G%,NCI-H522,"34,81%"
same,Mean G% - G%,HCC-2998,"-14,80%"
same,G%,HCC-2998,"69,04%"
same,Mean G% - G%,HCT-116,"25,02%"
same,G%,HCT-116,"29,22%"
same,Mean G% - G%,HT29,"36,72%"
same,G%,HT29,"17,52%"
same,Mean G% - G%,SF-295,"13,36%"
same,G%,SF-295,"40,88%"
same,Mean G% - G%,SNB-19,"-28,38%"
same,G%,SNB-19,"82,62%"
same,Mean G% - G%,SNB-75,"4,08%"
same,G%,SNB-75,"50,16%"
same,Mean G% - G%,IGROV1,"11,16%"
same,G%,IGROV1,"43,08%"
same,Mean G% - G%,OVCAR-5,"-28,14%"
same,G%,OVCAR-5,"82,38%"
same,Mean G% - G%,ACHN,"-14,97%"
same,G%,ACHN,"69,21%"
same,Mean G% - G%,RXF 393,"-13,94%"
same,G%,RXF 393,"68,18%"
same,Mean G% - G%,SN12C,"-37,53%"
same,G%,SN12C,"91,77%"
same,Mean G% - G%,TK-10,"-55,42%"
same,G%,TK-10,"109,66%"
same,Mean G% - G%,MCF7,"33,29%"
same,G%,MCF7,"20,95%"
